Assay results reported in US8003660B2, “Modulators of muscarinic receptors” (Vertex Pharmaceuticals Incorporated, priority 2006, dated 2011).

Key:
Type in all cases: cell-based
M1 muscarinic receptor = molecular target: T1, M1 muscarinic receptor (Homo sapiens, UniProt P11229); assay: Functional mobilization of intracellular calcium (FLIPR) in CHO cells expressing M1; settings: for EC50: CHO cells expressing M1, FLIPR calcium; for Emax: CHO, read-out: M1 Efficacy
T1 construct: expressed in transfected cells; host or cells: CHO (M1-CHO)
T1 sequence (P11229 1-460): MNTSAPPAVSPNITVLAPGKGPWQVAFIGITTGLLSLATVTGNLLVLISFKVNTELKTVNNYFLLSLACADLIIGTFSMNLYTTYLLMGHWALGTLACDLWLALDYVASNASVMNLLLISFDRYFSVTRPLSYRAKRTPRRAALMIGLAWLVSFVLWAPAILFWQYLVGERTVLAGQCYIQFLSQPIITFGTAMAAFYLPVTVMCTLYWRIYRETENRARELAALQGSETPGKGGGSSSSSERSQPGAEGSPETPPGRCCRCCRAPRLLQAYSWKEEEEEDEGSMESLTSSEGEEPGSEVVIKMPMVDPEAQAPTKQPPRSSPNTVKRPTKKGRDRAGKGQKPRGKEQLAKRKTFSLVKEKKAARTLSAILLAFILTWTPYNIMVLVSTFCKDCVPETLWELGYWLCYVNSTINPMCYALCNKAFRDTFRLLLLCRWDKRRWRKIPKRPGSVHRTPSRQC
Method: (§1) Functional Mobilization of Intracellular Calcium to Determine Muscarinic Receptor Activity:
(§2) CHO cells expressing muscarinic receptors (M1 to M5) are grown as monolayers in tissue culture flasks at 37° C. in a humidified atmosphere containing 5% CO2 and passaged every 3-5 days. The growth media is Dulbecco's modified eagles medium (DMEM, Gibco Cat# 12430-054), containing 25 mM Hepes and supplemented with Fetal Bovine Serum (Hyclone, cat# SH30071.03), 0.1 mM of MEM non-essential amino acids (GIBCO, Cat# 11140-050), 1 mM MEM Sodium Pyruvate (GIBCO Cat# 11360-070) and 100 units/ml of Penicillin G and 100 μg/ml of Streptomycin (GIBCO Cat# 15140-122). The recombinant muscarinic receptor cell lines are grown under antibiotic pressure with media containing 25 μg/ml zeocin and 500 μg/ml G418 (M1-CHO), 4 μg/ml puromycin, 50 μg/ml zeocin and 2.5 μg/ml blasticidin (M2 and M4-CHO) or 50 μg/ml zeocin and 4 μg/ml puromycin (M3 and M5-CHO).
(§3) Cells are harvested at 80-90% confluence using Versene (GIBCO Cat# 15040-066), collected by centrifugation and seeded 18-24 hrs prior to running the calcium assay at a density of 5,000-10,000 cells/well in […], clear-bottomed 384-well plates (BD Biocoat, poly-D-lysine, Cat#356663). The day of the experiment, the cells are washed with a plate washer (Bioteck Instruments, ELX 405) using bath 1 buffer (140 mM NaCl, 4,5 mM KCl, 2 mM CaCl2, 1 mM MgCl2, 10 mM Hepes-Na, 10 mM Glucose, pH 7.4, with NaOH) containing 1 mM Probenecid. Next, the calcium dye Fluo-3 (25 μl/well of Fluo-3 AM at 4 μM, Molecular Probes F-1241, in Bath 1 buffer containing 1 mM Probenecid) is added to the 25 μl of Bath 1 remaining in each well after the plate wash and the dye is loaded at 37° C. in the tissue culture incubator for 60-90 min. The fluorescent dye is removed using the plate washer with Bath 1 containing 1 mM Probenecid, leaving 25 μl/well of this solution after the wash. Alternatively, cells can be loaded with the calcium indicator from Molecular Devices (Calcium 3 Assay Reagents, Cat #R7181) adding 5 μl of a 5× solution dye in Bath 1 containing 1 mM Probenecid (10 ml per dye flask cat#R7182 to generate a solution […]) to 20 μl of the same buffer. After loading for 60 min, the experiment can be run without having to remove the dye.
(§4) Compounds are prepared at a 2× fold concentration in a 96-well plate (round bottom, Costar Corning cat#3656), by reconstituting the pre-spotted compounds in bath 1 containing 1 mM probenecid. The final concentration DMSO is 0.5%, and the amount of DMSO is normalized across the assay plate. To determine an agonist action of the compounds on muscarinic receptors, the reconstituted compounds are added (25 μl compound/well) to the cell assay plate (containing 25 μl/well) using the multi-channel robotic system of the FLIPR 3 Instrument (Molecular Devices, Sunnyvale, Calif.). To determine a functional inhibitory action of the compounds on muscarinic receptors, the reconstituted compounds are added (25 μl compound/well) to the assay plate and pre-incubated for 15 min prior to adding 25 μl of Carbachol at 3× the EC80 for each muscarinic subtype. Alternatively, the compounds can be co-applied simultaneously with the agonist. In both assay modes, the fluorescence is recorded for 60 sec (excitation wavelength is […] and emission wavelength 540 nm) using the FLIPR 3 instrument.
(§5) The potency, efficacy and selectivity of the muscarinic compounds were evaluated by screening the compound activity across the whole family (M1 to M5 cells). Compounds were also screened for activity on other proteins such as other GPCRs and ion channels to determine selectivity on M4 receptors.

M2 muscarinic receptor = molecular target: T2, M2 muscarinic receptor (Homo sapiens, UniProt P08172); assay: Functional mobilization of intracellular calcium (FLIPR) in CHO cells expressing M2; settings: for EC50: CHO cells expressing M2, FLIPR calcium; for Emax: CHO, read-out: M2 Efficacy
T2 construct: expressed in transfected cells; host or cells: CHO (M2-CHO)
T2 sequence (P08172 1-466): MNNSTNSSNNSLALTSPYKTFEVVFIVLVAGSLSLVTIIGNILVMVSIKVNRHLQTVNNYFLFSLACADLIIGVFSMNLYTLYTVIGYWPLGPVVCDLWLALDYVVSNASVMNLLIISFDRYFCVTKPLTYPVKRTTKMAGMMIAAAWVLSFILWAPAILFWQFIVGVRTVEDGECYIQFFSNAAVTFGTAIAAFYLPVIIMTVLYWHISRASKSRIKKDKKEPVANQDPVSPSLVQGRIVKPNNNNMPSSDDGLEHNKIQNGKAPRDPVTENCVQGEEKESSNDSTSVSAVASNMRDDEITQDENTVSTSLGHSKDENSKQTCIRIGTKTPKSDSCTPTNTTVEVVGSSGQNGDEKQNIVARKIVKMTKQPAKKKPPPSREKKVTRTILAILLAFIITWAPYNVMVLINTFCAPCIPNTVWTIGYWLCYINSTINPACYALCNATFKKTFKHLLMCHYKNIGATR
Method: as §1, §2, §3, §4, §5

M3 muscarinic receptor = molecular target: T3, M3 muscarinic receptor (Homo sapiens, UniProt P20309); assay: Functional mobilization of intracellular calcium (FLIPR) in CHO cells expressing M3; settings: for EC50: CHO cells expressing M3, FLIPR calcium; for Emax: CHO, read-out: M3 Efficacy
T3 construct: expressed in transfected cells; host or cells: CHO (M3-CHO)
T3 sequence (P20309 whole entry): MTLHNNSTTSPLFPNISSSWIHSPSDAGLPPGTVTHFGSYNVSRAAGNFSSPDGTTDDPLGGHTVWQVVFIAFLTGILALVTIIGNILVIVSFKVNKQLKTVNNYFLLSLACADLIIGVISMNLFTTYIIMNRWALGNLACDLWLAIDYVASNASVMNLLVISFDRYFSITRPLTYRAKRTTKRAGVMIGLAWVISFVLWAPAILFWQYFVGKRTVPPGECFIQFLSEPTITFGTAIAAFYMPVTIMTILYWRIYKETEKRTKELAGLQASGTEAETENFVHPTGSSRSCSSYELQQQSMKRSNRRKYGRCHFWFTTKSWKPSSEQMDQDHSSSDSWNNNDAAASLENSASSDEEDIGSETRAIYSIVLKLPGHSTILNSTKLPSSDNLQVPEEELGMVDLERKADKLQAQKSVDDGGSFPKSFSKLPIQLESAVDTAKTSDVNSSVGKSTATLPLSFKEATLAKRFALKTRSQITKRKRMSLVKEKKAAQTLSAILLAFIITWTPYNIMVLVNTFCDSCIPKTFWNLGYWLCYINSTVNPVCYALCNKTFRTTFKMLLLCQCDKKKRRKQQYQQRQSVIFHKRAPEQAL
Method: as §1, §2, §3, §4, §5

M4 muscarinic receptor = molecular target: T4, M4 muscarinic receptor (Homo sapiens, UniProt P08173); assay: Functional mobilization of intracellular calcium (FLIPR) in CHO cells expressing M4; settings: for EC50: CHO cells expressing M4, FLIPR calcium; for Emax: CHO, read-out: M4 Efficacy
T4 construct: expressed in transfected cells; host or cells: CHO (M4-CHO)
T4 sequence (P08173 1-479): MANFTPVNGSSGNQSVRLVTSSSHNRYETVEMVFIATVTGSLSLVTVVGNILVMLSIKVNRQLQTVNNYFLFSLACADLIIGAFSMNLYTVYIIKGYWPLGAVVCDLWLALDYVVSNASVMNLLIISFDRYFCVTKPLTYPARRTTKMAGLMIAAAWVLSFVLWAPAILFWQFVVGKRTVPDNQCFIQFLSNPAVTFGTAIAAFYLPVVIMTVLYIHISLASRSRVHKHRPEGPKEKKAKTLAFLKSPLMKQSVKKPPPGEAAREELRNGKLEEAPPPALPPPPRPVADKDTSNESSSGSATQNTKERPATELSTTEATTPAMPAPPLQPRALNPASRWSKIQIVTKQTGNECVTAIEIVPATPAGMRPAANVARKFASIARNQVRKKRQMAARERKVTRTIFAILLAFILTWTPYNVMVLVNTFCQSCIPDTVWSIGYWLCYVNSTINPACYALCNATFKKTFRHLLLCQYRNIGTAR
Method: as §1, §2, §3, §4, §5

[1] = 100% = maximum response obtained with the Carbachol control

| SMILES | EC50 (M1 muscarinic receptor) [µM] | Emax (M1 muscarinic receptor; [1]) [%] | EC50 (M2 muscarinic receptor) [µM] | Emax (M2 muscarinic receptor; [1]) [%] | EC50 (M3 muscarinic receptor) [µM] | Emax (M3 muscarinic receptor; [1]) [%] | EC50 (M4 muscarinic receptor) [µM] | Emax (M4 muscarinic receptor; [1]) [%] | M1 Efficacy (M1 muscarinic receptor; [1]) | M2 Efficacy (M2 muscarinic receptor; [1]) | M3 Efficacy (M3 muscarinic receptor; [1]) | M4 Efficacy (M4 muscarinic receptor; [1]) |
| --- | --- | --- | --- | --- | --- | --- | --- | --- | --- | --- | --- | --- |
| CCN(C(=O)C1CCOC1)[C@H]1CCC2(CCN(CCC(C)(C)C)CC2)c2ccccc21 (stereo partly shown) [compound 9] | > 5 | 25 to 100 | > 5 | < 25 | > 5 | < 25 | < 2 | 25 to 100 |  |  |  |  |
| CCN(C(=O)c1cscn1)[C@H]1CCC2(CCN(CCC(C)(C)C)CC2)c2ccccc21 [compound 10] | > 5 | < 25 | > 5 | < 25 | > 5 | < 25 | < 2 | 25 to 100 |  |  |  |  |
| CCC(=O)N[C@@H]1CCC2(CCN(CCC(C)(C)C)CC2)c2cc(F)ccc21 [compound 11] | < 2 | 25 to 100 | > 5 | < 25 | > 5 | < 25 | < 2 | 25 to 100 |  |  |  |  |
| CCOC(=O)N[C@H]1CCC2(CCN(CCC(C)(C)C)CC2)c2ccccc21 [compound 12] | < 2 | 25 to 100 | < 2 | 25 to 100 | > 5 | < 25 | < 2 | 25 to 100 |  |  |  |  |
| CCC(=O)N1CCCC(C(=O)N[C@@H]2CCC3(CCN(CCC(C)(C)C)CC3)c3ccccc32)C1 (stereo partly shown) [compound 13] | > 5 | < 25 | > 5 | < 25 | > 5 | < 25 | < 2 | 25 to 100 |  |  |  |  |
| CC(=O)N[C@H](C)C(=O)N[C@@H]1CCC2(CCN(CCC(C)(C)C)CC2)c2ccccc21 [compound 14] | > 5 |  | 2 to 5 |  | > 5 |  | < 2 |  | ++ (efficacy was calculated to be from 100% to 25%) | + (efficacy was calculated to be less than 25%) | + (efficacy was calculated to be less than 25%) | ++ (efficacy was calculated to be from 100% to 25%) |
| CCN(C(=O)C1CCCN1C(C)=O)[C@H]1CCC2(CCN(CCC(C)(C)C)CC2)c2ccccc21 (stereo partly shown) [compound 15] | < 2 | 25 to 100 | > 5 | < 25 | > 5 | < 25 | < 2 | 25 to 100 |  |  |  |  |
| COC(=O)CCCN1CCC2(CC[C@H](NC(C)=O)c3ccccc32)CC1 [compound 16] | 2 to 5 | 25 to 100 | > 5 | < 25 | > 5 | < 25 | > 5 | 25 to 100 |  |  |  |  |
| CC(C)(C)CCN1CCC2(CC[C@@H](NC(=O)CC3CCCC3=O)c3ccc(F)cc32)CC1 (stereo partly shown) [compound 17] | < 2 | 25 to 100 | > 5 | < 25 | > 5 | < 25 | < 2 | 25 to 100 |  |  |  |  |
| CC(=O)CCC(=O)N[C@H]1CCC2(CCN(CCC(C)(C)C)CC2)c2ccccc21 [compound 18] | < 2 | 25 to 100 | < 2 | 25 to 100 | > 5 | < 25 | < 2 | 25 to 100 |  |  |  |  |
| COC(C)(C)CCCC(C)CCN1CCC2(CC[C@H](NC(=O)N(C)C)c3ccccc32)CC1 (stereo partly shown) [compound 19] | > 5 | < 25 | > 5 | < 25 | > 5 | < 25 | > 5 | < 25 |  |  |  |  |
| CC(=O)NCCC(=O)N[C@@H]1CCC2(CCN(CCC(C)(C)C)CC2)c2cc(F)ccc21 [compound 20] | < 2 | 25 to 100 | < 2 | 25 to 100 | > 5 | < 25 | < 2 | 25 to 100 |  |  |  |  |
| CCOCCC(=O)N[C@@H]1CCC2(CCN(CCC(C)(C)C)CC2)c2ccccc21 [compound 21] | < 2 | 25 to 100 | < 2 | 25 to 100 | > 5 | < 25 | < 2 | 25 to 100 |  |  |  |  |
| C[C@@H](C(=O)N[C@@H]1CCC2(CCN(CCC(C)(C)C)CC2)c2cc(F)ccc21)N1CCCC1=O [compound 22] | 2 to 5 | 25 to 100 | 2 to 5 | < 25 | > 5 | < 25 | < 2 | 25 to 100 |  |  |  |  |
